2 compounds from patent publication US20130078185A1, “NITROIMIDAZOLE DERIVATIVES” (GE HEALTHCARE LIMITED, priority 2010, published 2013) can be followed below.

The subject of experiment [1] is VERO cells. Briefly: cells. The experiment is classed as cell-based, African green monkey (Cercopithecus aethiops). Conditions: Chlorocebus sabaeus.
Experiment [2] deals with Mycobacterium tuberculosis strain H37Rv. Briefly: microplate alamar blue assay (MABA) MIC. In kind it is cell-based. The settings on record: M. tuberculosis H37Rv, BACTEC 12B medium, MIC90 = 90% reduction in fluorescence relative to controls. On the procedure: Screening was done to get MIC for M. tuberculosis using both the microplate alamar blue assay (MABA) and low-oxygen recovery assay (LORA).
The initial screen was conducted against Mycobacterium tuberculosis strain H37Rv (American Type Culture Collection number 27294) in BACTEC 12B medium (Becton-Dickinson) using the MABA. Compounds were tested in ten 2-fold dilutions, typically from 100 μg/mL to 0.19 μg/mL. The MIC90 is defined as the concentration effecting a reduction in fluorescence of 90% relative to controls. This value is determined from the dose-response curve using a curve-fitting program. Any MIC90 value of ≦10 μg/mL was considered “active” for antitubercular activity. 3(h) Method for Determining IC50
(Alamar Blue is a resazurin reagent that responds to reducing activity.)

Values after ≈ are worked out from the molar mass of the structure shown. Like-named read-outs stand apart in the source and are kept apart here.

For the compound `C[C@]1(COc2ccccc2)Cn2cc([N+](=O)[O-])nc2O1` [Example 1, (R)-2-Methyl-6-nitro-2-(phenoxymethyl)-2,3-dihydroimidazo[2,1-b]oxazole], the half-maximal inhibitory concentration (IC50) in experiment [1] (Vero, 72 h) was above 50 µg/mL. The same compound returned a minimal inhibitory concentration (MIC) in experiment [2] of 1.33 µg/mL (≈ 4.83 µM).
As for `C[C@]1(COc2ccc(I)cc2)Cn2cc([N+](=O)[O-])nc2O1` [Example 2, (R)-2-((4-Iodophenoxy)methyl)-2-methyl-6-nitro-2,3-dihydroimidazo[2,1-b]oxazole], the IC50 in experiment [1] (VERO cell cytotoxicity, 72 hours exposure, ATP viability readout, read-out: IC50) was above 50 µg/mL. Further, the minimal inhibitory concentration (MIC) in experiment [2] was below 0.195 µg/mL.

The IC50 is the concentration that gives 50% inhibition. The term MIC denotes the smallest concentration in the dilution series that meets the test's criterion for growth inhibition. A lower MIC goes with greater potency.
